# Results: patent publication US20230382923A1, “FUSED TETRACYCLIC QUINAZOLINE DERIVATIVES AS INHIBITORS OF ERBB2” (EnLiven Therapeutics, Inc., priority 2021, published 2023)
# pIC50: −log10 of the molar value.
# What was measured:
# [1] = target: phosphorylated ERBB2 (pERBB2) (Homo sapiens (Human), UniProt P04626); test: Detection of phosphorylated ERBB2 (pERBB2) by ELISA in BT-474 cells; format: cell-based; details: four hours incubation with compound
# Protocol: BT-474 cells were seeded into a 96-well at 2.0*10^4cells/100 μl/well. Compounds were dissolved and serially diluted in DMSO. The compounds were then were added, mixed, and incubated for four hours at 37° C., 5% CO2. […] Following the four hour incubation with compounds, cell lysates were prepared. Plates were centrifuged for 5 min at 3000 RPM, and supernatant was removed from each well. Cells were washed 3 times by resuspension in 150 μl PBS, followed by centrifugation and removal of the supernatant, as above. 100 μl of cell lysis buffer (Boston BioProducts, cat #BP-115D) supplied with 1×complete ULTRA cocktail inhibitor (Thermo ScientificTM, cat #78443) was then added to the washed cells. Cells were incubated with lysis buffer for 1 hour at 4° C., and then stored at -80° C. Enzyme-linked immunosorbent assays (ELISA) were performed to measure phosphorylated ERBB2 levels. […] The next day, plates were washed with PBS+0.05% Tween20 (PBST). 150 μl of 5% BSA blocking solution was added for 1 hour at room temperature, with shaking. Plates were washed with PBST. Cell lysates were thawed and 100 μl of lysate was added to the ELISA plate. The plates were incubated for 2 hours at room temperature, with shaking. ELISA plates were then washed with PBST and 100 μl of an HRP-labeled detection antibody that binds phosphorylated tyrosine (R&D Systems, cat #841913) was added to each well. Plates were incubated for 1 hour at room temperature, with shaking. Plates were then washed with PBST, and 100 μl TMB substrate solution (R&D Systems, cat #DY999) was added. Plate were incubated in the dark for 20 minutes at room temperature. 50 μl of Stop solution (R&D Systems, cat #DY994) (50 μl) was added to each well and mixed. […] The remaining kinase activity by calculated using the following formula: % Relative activity=100×([…]). The low and high control values (“LC” and “HC”) were generated from lysate from wells without cells or with cells treated with 0.1% DMSO, respectively.
# [2] = target: phosphorylated EGFR (pEGFR) (Homo sapiens (Human), UniProt P00533); test: Detection of phosphorylated EGFR (pEGFR) by AlphaLISA in A431 cells; format: cell-based; details: A431 cells (10% FBS), 4 hours incubation, EGF 30 ng/mL for 10 minutes
# Protocol: […] were performed to measure phosphorylated EGFR levels using A431 cells (10% FBS). A431 (1.0*10^4cells/40 μl/well) cells were seeded in 384 well. Compounds were dissolved in DMSO, serially diluted in DMSO and then were added, mixed, and incubated for 4 hours at 37° C., […]. Following the 4-hours incubation, cells were stimulated for 10 minutes with EGF (Invitrogen, cat #PHG0311) at a final concentration of 30 ng/mL in the incubator. The media was aspirated and cells were lysed in 10 μL lysis buffer with protease and phosphatase inhibitors (PerkinElmer, cat #ALSU-PEGFR-A50K). The plates were placed on a shaker for 5 minutes and then incubated for 30 min at 4° C. for complete lysis. The lysate was transferred to an Optiplate (Perkin Elmer, cat #6007290).
# Acceptor mix (PerkinElmer, cat #ALSU-PEGFR-A50K) was prepared just before use and 5 μL was dispensed to all the wells, followed by a 1.5-2 h incubation at room temperature in dark. The donor mix (PerkinElmer, cat #ALSU-PEGFR-A50K) was prepared under low light conditions prior to use and 5 μl of donor mix was added to all the wells under subdued lighting or green filters. The plates were placed on a shaker for 5 min, sealed, and incubated overnight at room temperature in dark. Plates were read on the Envision (PerkinElmer) using standard AlphaLISA settings.
# The percentage of inhibition on EGFR phosphorylation was calculated following equation: % Inhibition=100×(LumHC−LumSample)/(LumHC−LumLC). The low and high controls (LC/HC) are generated from lysate from wells with cells treated with DMSO or […] Staurosporine (BioAustralis, cat #BIA-S1086), […]. IC50 values were calculated by fitting the Curve using XLfit (v5.3.1.3), equation 201: Y=Bottom+(Top−Bottom)/(1+10^((LogIC50−X)*HillSlope)).
# Sequence of phosphorylated ERBB2 (pERBB2) (P04626 23-1255): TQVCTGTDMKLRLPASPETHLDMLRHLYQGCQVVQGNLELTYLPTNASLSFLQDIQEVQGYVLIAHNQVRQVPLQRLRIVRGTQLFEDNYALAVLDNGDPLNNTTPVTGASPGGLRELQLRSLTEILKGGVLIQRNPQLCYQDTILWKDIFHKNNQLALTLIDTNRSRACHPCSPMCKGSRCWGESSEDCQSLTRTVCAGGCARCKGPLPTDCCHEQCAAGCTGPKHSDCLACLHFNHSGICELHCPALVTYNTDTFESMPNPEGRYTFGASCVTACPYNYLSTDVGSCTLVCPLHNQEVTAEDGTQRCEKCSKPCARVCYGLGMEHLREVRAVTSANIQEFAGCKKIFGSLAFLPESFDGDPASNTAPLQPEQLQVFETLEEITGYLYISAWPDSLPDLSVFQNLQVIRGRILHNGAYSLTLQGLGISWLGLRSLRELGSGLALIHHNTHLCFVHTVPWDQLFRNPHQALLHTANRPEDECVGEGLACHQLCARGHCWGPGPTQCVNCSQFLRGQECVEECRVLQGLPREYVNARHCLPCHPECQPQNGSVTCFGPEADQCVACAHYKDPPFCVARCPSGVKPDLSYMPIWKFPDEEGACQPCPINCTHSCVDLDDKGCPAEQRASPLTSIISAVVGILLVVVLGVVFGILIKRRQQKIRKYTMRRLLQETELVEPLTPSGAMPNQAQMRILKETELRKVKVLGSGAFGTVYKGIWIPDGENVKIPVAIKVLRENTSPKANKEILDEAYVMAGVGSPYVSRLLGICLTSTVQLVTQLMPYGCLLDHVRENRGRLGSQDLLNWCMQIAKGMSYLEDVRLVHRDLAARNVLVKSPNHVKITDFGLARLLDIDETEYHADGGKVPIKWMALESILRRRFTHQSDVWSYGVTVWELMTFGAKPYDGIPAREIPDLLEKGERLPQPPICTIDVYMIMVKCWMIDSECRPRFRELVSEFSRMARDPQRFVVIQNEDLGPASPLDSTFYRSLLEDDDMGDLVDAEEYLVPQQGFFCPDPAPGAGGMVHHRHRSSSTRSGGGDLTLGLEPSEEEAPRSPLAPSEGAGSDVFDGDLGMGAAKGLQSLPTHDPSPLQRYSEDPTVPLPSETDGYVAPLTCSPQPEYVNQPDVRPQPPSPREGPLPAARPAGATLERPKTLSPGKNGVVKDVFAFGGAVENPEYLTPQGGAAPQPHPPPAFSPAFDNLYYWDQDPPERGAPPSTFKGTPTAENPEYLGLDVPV
# Sequence of phosphorylated EGFR (pEGFR) (P00533 25-1210): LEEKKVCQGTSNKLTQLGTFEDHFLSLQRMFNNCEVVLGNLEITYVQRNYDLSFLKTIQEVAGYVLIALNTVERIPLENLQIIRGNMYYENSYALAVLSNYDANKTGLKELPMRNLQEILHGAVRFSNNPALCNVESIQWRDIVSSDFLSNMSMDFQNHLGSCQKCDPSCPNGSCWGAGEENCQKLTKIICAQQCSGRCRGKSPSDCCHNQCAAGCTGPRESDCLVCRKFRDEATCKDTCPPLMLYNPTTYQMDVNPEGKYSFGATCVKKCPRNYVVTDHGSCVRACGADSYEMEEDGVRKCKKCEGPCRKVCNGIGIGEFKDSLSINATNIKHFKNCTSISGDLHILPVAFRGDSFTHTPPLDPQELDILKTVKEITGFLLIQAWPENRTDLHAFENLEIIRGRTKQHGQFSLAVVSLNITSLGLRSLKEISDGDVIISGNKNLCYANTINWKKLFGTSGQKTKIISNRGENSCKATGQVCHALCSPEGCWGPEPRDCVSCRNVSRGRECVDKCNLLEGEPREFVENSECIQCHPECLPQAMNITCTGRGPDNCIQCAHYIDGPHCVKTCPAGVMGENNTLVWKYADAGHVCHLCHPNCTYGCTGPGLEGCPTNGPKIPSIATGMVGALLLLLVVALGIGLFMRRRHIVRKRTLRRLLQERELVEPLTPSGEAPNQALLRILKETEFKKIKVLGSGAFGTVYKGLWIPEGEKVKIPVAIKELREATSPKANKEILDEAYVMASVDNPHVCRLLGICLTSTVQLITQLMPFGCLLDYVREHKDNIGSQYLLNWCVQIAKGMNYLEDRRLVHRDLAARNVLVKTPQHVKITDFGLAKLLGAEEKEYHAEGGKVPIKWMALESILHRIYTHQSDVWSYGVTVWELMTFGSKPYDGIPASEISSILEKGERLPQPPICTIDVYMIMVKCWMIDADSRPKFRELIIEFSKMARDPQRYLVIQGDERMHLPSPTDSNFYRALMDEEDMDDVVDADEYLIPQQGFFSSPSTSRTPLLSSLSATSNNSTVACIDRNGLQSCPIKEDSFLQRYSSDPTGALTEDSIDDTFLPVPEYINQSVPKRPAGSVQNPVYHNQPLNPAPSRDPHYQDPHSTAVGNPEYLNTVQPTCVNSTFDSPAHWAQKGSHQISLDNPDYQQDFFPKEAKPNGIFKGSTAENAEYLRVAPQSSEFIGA
pIC50 [1],pIC50 [2],Structure (SMILES)
7.84,5.28,"Cc1cc(Nc2ncnc3cc4c(nc23)N2CCN(C(=O)/C=C/[C@H]3CCCN3C)C(CO4)C2)ccc1Oc1ccn2ncnc2c1 (stereo in doubt) [Compound 27, (E)-1-((10S)-4-((4-([1,2,4]triazolo[1,5-a]pyridin-7-yloxy)-3-methylphenyl)amino)-7,8,10,11-tetrahydro-9H-6,10-methanopyrimido[4′,5′:5,6]pyrido[3,2-b][1,4,7]oxadiazonin-9-yl)-3-((R)-1-methylpyrrolidin-2-yl)prop-2-en-1-one]"
7.97,5.06,"Cc1cc(Nc2ncnc3cc4c(nc23)N2CCN(C(=O)/C=C/[C@@H]3CCCN3C)C(CO4)C2)ccc1Oc1ccn2ncnc2c1 (stereo in doubt) [Compound 28, (E)-1-((10S)-4-((4-([1,2,4]triazolo[1,5-a]pyridin-7-yloxy)-3-methylphenyl)amino)-7,8,10,11-tetrahydro-9H-6,10-methanopyrimido[4′,5′:5,6]pyrido[3,2-b][1,4,7]oxadiazonin-9-yl)-3-((S)-1-methylpyrrolidin-2-yl)prop-2-en-1-one]"
7.77,< 5.00,"Cc1cc(Nc2ncnc3cc4c(nc23)N2CCN(C(=O)/C=C/[C@@H](C)N(C)C)C(CO4)C2)ccc1Oc1ccn2ncnc2c1 (stereo in doubt) [Compound 29, (4R,E)-1-((10S)-4-((4-([1,2,4]triazolo[1,5-a]pyridin-7-yloxy)-3-methylphenyl)amino)-7,8,10,11-tetrahydro-9H-6,10-methanopyrimido[4′,5′:5,6]pyrido[3,2-b][1,4,7]oxadiazonin-9-yl)-4-(dimethylamino)pent-2-en-1-one]"
7.73,< 5.00,"CN(C)C/C=C/C(=O)N1CCN2CC1COc1cc3ncnc(Nc4ccc(Oc5ccn6ncnc6c5)cc4)c3nc12 (stereo in doubt) [Compound 31, (E)-1-((10S)-4-((4-([1,2,4]triazolo[1,5-a]pyridin-7-yloxy)phenyl)amino)-7,8,10,11-tetrahydro-9H-6,10-methanopyrimido[4′,5′:5,6]pyrido[3,2-b][1,4,7]oxadiazonin-9-yl)-4-(dimethylamino)but-2-en-1-one]"
8.08,6.04,"CN(C)C/C=C/C(=O)N1CCN2CC1COc1cc3ncnc(Nc4ccc(Oc5ccn6ncnc6c5)c(Cl)c4)c3nc12 (stereo in doubt) [Compound 32, (E)-1-((10S)-4-((4-([1,2,4]triazolo[1,5-a]pyridin-7-yloxy)-3-chlorophenyl)amino)-7,8,10,11-tetrahydro-9H-6,10-methanopyrimido[4′,5′:5,6]pyrido[3,2-b][1,4,7]oxadiazonin-9-yl)-4-(dimethylamino)but-2-en-1-one]"
7.75,6.33,"Cc1cc(Nc2ncnc3cc4c(nc23)N2CCN(C(=O)/C=C/CN(C)C)C(CO4)C2)ccc1Oc1ccn2ccnc2c1 (stereo in doubt) [Compound 34, (E)-4-(dimethylamino)-1-((10S)-4-((4-(imidazo[1,2-a]pyridin-7-yloxy)-3-methylphenyl)amino)-7,8,10,11-tetrahydro-9H-6,10-methanopyrimido[4′,5′:5,6]pyrido[3,2-b][1,4,7]oxadiazonin-9-yl)but-2-en-1-one]"
8.26,6.51,"Cc1c(Oc2ccn3ncnc3c2)ccc(Nc2ncnc3cc4c(nc23)N2CCN(C(=O)/C=C/CN(C)C)C(CO4)C2)c1F (stereo in doubt) [Compound 35, (E)-1-((10S)-4-((4-([1,2,4]triazolo[1,5-a]pyridin-7-yloxy)-2-fluoro-3-methylphenyl)amino)-7,8,10,11-tetrahydro-9H-6,10-methanopyrimido[4′,5′:5,6]pyrido[3,2-b][1,4,7]oxadiazonin-9-yl)-4-(dimethylamino)but-2-en-1-one]"
8.05,5.21,"CN(C)C/C=C/C(=O)N1CCN2CC1COc1cc3ncnc(Nc4ccc(Oc5ccn6ncnc6c5)c(F)c4)c3nc12 (stereo in doubt) [Compound 39, (E)-1-((10S)-4-((4-([1,2,4]triazolo[1,5-a]pyridin-7-yloxy)-3-fluorophenyl)amino)-7,8,10,11-tetrahydro-9H-6,10-methanopyrimido[4′,5′:5,6]pyrido[3,2-b][1,4,7]oxadiazonin-9-yl)-4-(dimethylamino)but-2-en-1-one]"
7.73,< 5.00,"Cc1cc(Nc2ncnc3cc4c(c(F)c23)N2CCN(C(=O)/C=C/CN(C)C)C(CO4)C2)ccc1Oc1ccn2ncnc2c1 (stereo in doubt) [Compound 40, (E)-1-((10S)-4-((4-([1,2,4]triazolo[1,5-a]pyridin-7-yloxy)-3-methylphenyl)amino)-5-fluoro-7,8,10,11-tetrahydro-9H-6,10-methano[1,4,7]oxadiazonino[3,2-g]quinazolin-9-yl)-4-(dimethylamino)but-2-en-1-one]"
7.61,5.14,"Cc1cc(Nc2ncnc3cc4c(nc23)N2CCN(C(=O)/C=C/[C@H]3CCCN3C)C(CO4)C2)c(F)cc1Oc1ccn2ncnc2c1 (stereo in doubt) [Compound 41, (E)-1-((10S)-4-((4-([1,2,4]triazolo[1,5-a]pyridin-7-yloxy)-2-fluoro-5-methylphenyl)amino)-7,8,10,11-tetrahydro-9H-6,10-methanopyrimido[4′,5′:5,6]pyrido[3,2-b][1,4,7]oxadiazonin-9-yl)-3-((R)-1-methylpyrrolidin-2-yl)prop-2-en-1-one]"
7.97,5.71,"CN(C)C/C=C/C(=O)N1CCN2CC1COc1cc3ncnc(Nc4ccc(Oc5ccn6ncnc6c5)cc4F)c3nc12 (stereo in doubt) [Compound 42, (E)-1-((10S)-4-((4-([1,2,4]triazolo[1,5-a]pyridin-7-yloxy)-2-fluorophenyl)amino)-7,8,10,11-tetrahydro-9H-6,10-methanopyrimido[4′,5′:5,6]pyrido[3,2-b][1,4,7]oxadiazonin-9-yl)-4-(dimethylamino)but-2-en-1-one]"
8.06,5.85,"CN(C)C/C=C/C(=O)N1CCN2CC1COc1cc3ncnc(Nc4cc(Cl)c(Oc5ccn6ncnc6c5)cc4F)c3nc12 (stereo in doubt) [Compound 43, (E)-1-((10S)-4-((4-([1,2,4]triazolo[1,5-a]pyridin-7-yloxy)-5-chloro-2-fluorophenyl)amino)-7,8,10,11-tetrahydro-9H-6,10-methanopyrimido[4′,5′:5,6]pyrido[3,2-b][1,4,7]oxadiazonin-9-yl)-4-(dimethylamino)but-2-en-1-one]"
7.44,6.47,"Cc1cc(Nc2ncnc3cc4c(nc23)N2CCN(C(=O)/C=C/CN(C)C)C(CO4)C2)c(F)cc1Oc1cncc(F)c1 (stereo in doubt) [Compound 44, (E)-4-(dimethylamino)-1-((10S)-4-((2-fluoro-4-((5-fluoropyridin-3-yl)oxy)-5-methylphenyl)amino)-7,8,10,11-tetrahydro-9H-6,10-methanopyrimido[4′,5′:5,6]pyrido[3,2-b][1,4,7]oxadiazonin-9-yl)but-2-en-1-one]"
7.56,< 5.00,"Cc1cc(Nc2ncnc3cc4c(nc23)N2CCN(C(=O)/C=C/C3CN(C)C3)C(CO4)C2)ccc1Oc1ccn2ncnc2c1 (stereo in doubt) [Compound 45, (E)-1-((10S)-4-((4-([1,2,4]triazolo[1,5-a]pyridin-7-yloxy)-3-methylphenyl)amino)-7,8,10,11-tetrahydro-9H-6,10-methanopyrimido[4′,5′:5,6]pyrido[3,2-b][1,4,7]oxadiazonin-9-yl)-3-(1-methylazetidin-3-yl)prop-2-en-1-one]"
